Measured values taken from publication PMC8947478, “Novel, First-in-Human, Oral PCLX-001 Treatment in a Patient with Relapsed Diffuse Large B-Cell Lymphoma” (Current Oncology, 2022).
Entries after “also recorded” stand apart in the source; their conditions may differ. Read-outs that look alike come from different tables or passages of the source.

Tests used:
[1] = Pharmacokinetic analysis of plasma after oral PCLX-001 (UHPLC-MS, two-compartment model); assay type: in vivo, human; conditions: patient
Procedure: The primary pharmacokinetic analysis endpoints were:
Tmax is the time at which the maximum plasma concentration of PCLX-001 is achieved.
Cmax is the maximum plasma concentration of PCLX-001.
The patient was dosed with oral doses of PCLX-001 20 mg. After dosing, the blood samples (3 mL volume) were serially collected into heparinized tubes from a right forearm butterfly cannula. All blood fluid specimens were frozen and later assayed using a validated UHPLC-MS detection method.
PK Solver 2.0 freeware (https://www.boomer.org/boomer/software/pksolver.zip; accessed 26 November 2021) was used to determine the single dose pharmacokinetic parameters using a two-compartment model. The terminal phase rate constant (λz) was estimated by applying exponential linear regression to the concentrations in the terminal phase, and the apparent terminal half-life (t 1/2) was estimated as 0.693/λz. The area under the concentration (AUC) vs. time curve from the time of injection to the last (Clast) measured concentration (AUC0-tlast) was calculated. […] Oral body clearance (CLoral) was calculated as the ratio of the dose to the AUC0–∞. The area under the first moment concentration vs. time curve (AUMC) was estimated as the sum of the area under the C × t vs. t curve from time zero to Clast, plus the ratios of Clast × t/λz and Clast/λz 2. The mean residence time (MRT) was calculated as the ratio of AUMC to AUC0–∞). The apparent volume of distribution of steady-state (Vdss) was calculated as the product of CL × MRT.

[2] = tested on: T cells, B cells, and monocyte population; assay: Flow cytometry of live PBMC populations in the treated patient; assay type: in vivo, human
Procedure: (§1) Peripheral blood was collected from the patient at each sampling point (Screen, Day 1, and Day 28 of treatment) by venipuncture according to normal phlebotomy practice in 2 × 8 mL BD Vacutainer® CPT™ Tubes. Samples were immediately mixed by gentle inversion 10 times and process for PBMC isolation within 1 h. After centrifugation (1800× g for 20 min) at room temperature (18–25 °C) in a swinging bucket rotor (swing-out head), the mononuclear cells and platelets (referred to as PBMC) were carefully collected as the whitish layer just above the polyester gel and under the plasma layer, transferred into 9 mL freezing media (8 mL Fetal Bovine Serum and 1 mL DMSO), and stored at −70 °C or below until flow cytometry analysis.
(§2) PBMC were recovered by centrifugation (400× g for 5 min), washed in RPMI culture media, resuspended in PBS, and prepared for FACS analysis. PBMC were first labeled with Zombie Aqua™ Fixable Viability kit (1/100, 20 min at 4 °C; BioLegend, San Diego, CA, USA) for exclusion of dead cells, blocked with Human TruStain FcX Fc receptor blocking solution (5/100, 10 min at room temperature, BioLegend), then stained for extracellular markers using antibodies ECD-CD3 (clone UCHT1) and PE-Cy7-CD4 (clone SFCI12T4D11) from Beckman Coulter (Missaugua, ON, Canada) PerCp-Cy5.5-CD8 (SK-1) and BV-785CD19 (clone HIB19) from BioLegend, and PE-CF594-CD14 (clone MΦPG) from BD Bioscience (Mississauga, ON, Canada) for 20 min at 4 °C. The cells were then fixed and permeabilized using the eBioscience Intracellular Fixation and Permeabilization buffer set (Invitrogen, Mississauga, ON, Canada) and stained for intracellular markers AF-488-HGAL (clone 1H1-A7, eBioscience), AF-488-Lyn (Lyn-01, ab1890, Abcam, Cambridge, UK), and homemade monoclonal antibodies AF-700-NMT1(clone 6F8D5) and APC-NMT2 (clone 6C5E8), as previously described, in parallel with relevant isotype controls for at least 30 min at 4 °C. Prior to applying in the test, intracellular antibodies were first labeled with different fluorochromes using Lightning-Link conjugation kits (Abcam) and titrated to achieve the best concentration. Finally, samples were acquired on a Fortessa X-20 flow cytometer (BD Bioscences, Faculty of Medicine and Dentistry Flow Cytometry Facility, University of Alberta). Data were analyzed using FlowJo software (TreeStar, Ashland, OR, USA, version 10.8).

HGAL [3] = assay: Flow cytometry of intracellular HGAL level in PBMC populations; assay type: in vivo, human
Procedure: as §1, §2

Lyn [4] = assay: Flow cytometry of intracellular Lyn level in PBMC populations; assay type: in vivo, human
Procedure: as §1, §2

NMT2 = molecular target: T1, NMT2 (Homo sapiens, UniProt O60551); assay: Flow cytometry of intracellular NMT2 level in PBMC populations; assay type: in vivo
T1 construct: homemade monoclonal antibodies AF-700-NMT1(clone 6F8D5) and APC-NMT2 (clone 6C5E8); endogenous in cells; host or cells: patient peripheral blood mononuclear cells (CD4+, CD8+, CD19+, CD14+ populations)
T1 sequence (O60551 1-498): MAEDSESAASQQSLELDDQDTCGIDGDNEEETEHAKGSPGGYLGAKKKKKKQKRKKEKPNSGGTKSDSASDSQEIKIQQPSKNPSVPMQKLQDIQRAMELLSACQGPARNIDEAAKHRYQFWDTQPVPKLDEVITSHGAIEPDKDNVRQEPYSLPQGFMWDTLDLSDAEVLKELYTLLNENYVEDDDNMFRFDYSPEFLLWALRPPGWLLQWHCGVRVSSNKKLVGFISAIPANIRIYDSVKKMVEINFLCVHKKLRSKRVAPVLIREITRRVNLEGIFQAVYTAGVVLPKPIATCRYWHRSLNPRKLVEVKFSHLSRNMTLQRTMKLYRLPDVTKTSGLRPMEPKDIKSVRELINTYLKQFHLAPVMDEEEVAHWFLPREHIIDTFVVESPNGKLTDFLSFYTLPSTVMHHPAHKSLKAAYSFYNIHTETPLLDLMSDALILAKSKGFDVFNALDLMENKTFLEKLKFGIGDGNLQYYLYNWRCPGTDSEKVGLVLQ
Procedure: as §1, §2

[5] = Toxicity assessment in phase I trial (CTCAE version 5.0, DLT); assay type: in vivo, human; conditions: patient, 20 mg oral daily
Procedure: The subject was assessed for toxicity using daily diary entries, clinical assessments at baseline, day 8, day 15, day 22, and day 28. Dose-limiting toxicities (DLTs) were defined as the following cycle 1 CTCAE version 5.0 adverse events: Gr 4 platelets, Gr ≥ 3 platelets with bleeding and/or transfusions, Gr 4 ANC for ≥ 7 days, Gr ≥ 3 febrile neutropenia, and Gr ≥ 3 non-hematological toxicity.

[6] = tested on: relapsed diffuse large B-cell lymphoma; assay: Efficacy assessment by imaging (Lugano classification criteria); assay type: in vivo, human; conditions: patient, 20 mg oral daily, CT on day 29
Description: The subject had baseline cross-sectional and PET imaging. Protocol-defined imaging was CT every 2 cycles and PET every 6 cycles or as clinically indicated. Evaluation of response was by the Lugano classification criteria for the evaluation of non-Hodgkin lymphoma.

[7] = animal models; cited from earlier work
kinase = tested on: kinase; design: method as in PMID 33093447; conditions: KINOMEscan; cited from earlier work
hERG = conditions: preclinical testing; cited from earlier work
[8] = cited from earlier work
[9] = tested on: hematologic and lymphoma cell lines; design: method as in PMID 33093447; conditions: tissue culture; cited from earlier work
[10] = tested on: human cancers grown in immunodeficient mice; conditions: cited from earlier work
[11] = tested on: Bruton tyrosine kinase (BTK); design: method as in PMID 33093447; conditions: models of human lymphoma; cited from earlier work
Lyn [12] = tested on: Lyn; design: method as in PMID 33093447; conditions: multiple Burkitt Lymphoma and Diffuse Large B cell lymphoma cell lines; cited from earlier work
HGAL [13] = tested on: HGAL; design: method as in PMID 33093447; conditions: multiple Burkitt Lymphoma and Diffuse Large B cell lymphoma cell lines; cited from earlier work
[14] = 20 mg oral, Day 1 single dose, plasma
[15] = 20 mg daily, 28 days, all populations

Compound: Cc1c(NS(=O)(=O)c2c(Cl)cc(-c3ccnc(N4CCNCC4)c3)cc2Cl)c(CC(C)C)nn1C [PCLX-001, 2,6-dichloro-N-(3-isobutyl-1,5-dimethyl-1H-pyrazol-4-yl)-4-(2-(piperazin-1-yl)pyridin-4-yl)benzenesulfonamide]
- AUC(0-inf) ([1]; human, plasma, po, 20 mg, 20 mg oral daily, Day 15, plasma, read-out: Day 15 AUC0–∞): 2640 ng·h/mL
- Cmax ([1]; human, plasma, po, 20 mg, 20 mg oral, Day 1 single dose, plasma, read-out: Cmax): 278 ng/mL
- AUC(0-inf) ([1]; human, plasma, po, 20 mg, 20 mg oral, first dose (Day 1), plasma, read-out: AUC0–∞): 2360 ng·h/mL
- half-life ([1]; human, plasma, po, 20 mg, 20 mg oral, single dose, read-out: T ½ (apparent terminal half-life) (converted)): 16 h
- MRT ([1]; human, plasma, 20 mg oral, single dose): 18.6 h
- Tmax ([1]; human, 20 mg oral, Day 1 single dose, plasma): 1.1 h
- Day 22 pre-dose plasma concentration ([1]; 20 mg oral daily, Day 22 pre-dose (trough)): 51.4 ng/mL
- drug accumulation in plasma after repeated daily dosing ([1]; 20 mg oral daily, first dose AUC vs day 15 AUC): without systemic accumulation of drug by day 15; also recorded: no evidence of drug accumulation
- AUC0-tlast [1, 14]: 1701.33 ng·h/mL
- Cmax [1, 14]: 278.23 ng/mL
- AUMC ([1]; 20 mg oral, single dose): 43,883.76 ng/mL.h^2
- CLoral ([1]; 20 mg oral, single dose): 8.4 L/h
- T ½ (apparent terminal half-life) ([1]; 20 mg oral, single dose): 16.42 h
- Vdss ([1]; 20 mg oral, single dose): 156.49 L
- effect on live T cell, B cell and monocyte populations ([2]; 28 days of PCLX-001 treatment, 20 mg daily): only marginally affected
- CD19+ B cells, % of population ± CV, Day 28 ([2]; live PBMC, 28 days of 20 mg daily, untreated: Screening 0.71, Day 1 1.18): 0.59 ± 0.50%
- CD14+ monocytes, % of population ± CV, Day 28 ([2]; live PBMC, 28 days of 20 mg daily, untreated: Screening 5.01, Day 1 14.2): 4.51 ± 0.42%
- CD8+ T cells, % of population ± CV, Day 28 ([2]; live PBMC, 28 days of 20 mg daily, untreated: Screening 25.1, Day 1 23.1): 22.5 ± 0.31%
- CD4+ T cells, % of population ± CV, Day 28 ([2]; live PBMC, 28 days of 20 mg daily, untreated: Screening 40.2, Day 1 42.5): 46.8 ± 0.22%
- Total T cells (CD3+), % of population ± CV, Day 28 ([2]; live PBMC, 28 days of 20 mg daily, untreated: Screening 66.6, Day 1 66.7): 70.1 ± 0.50%
- change of HGAL protein level in circulating blood mononuclear cells (HGAL [3]; [15]): no clear change; also recorded: no apparent trend
- HGAL intracellular level, % of population ± CV, Day 28 (HGAL [3]; CD4+ T cells, untreated: Screening 12.7, Day 1 22.1): 8.6 ± 0.58%
- HGAL intracellular level, % of population ± CV, Day 28 (HGAL [3]; CD8+ T cells, untreated: Screening 25, Day 1 30.3): 17 ± 0.63%
- HGAL intracellular level, % of population ± CV, Day 28 (HGAL [3]; CD14+ Monocytes, untreated: Screening 83.9, Day 1 87.5): 88.3 ± 0.64%
- HGAL intracellular level, % of population ± CV, Day 28 (HGAL [3]; CD19+ B cells, untreated: Screening 2.44, Day 1 11.2): 8.33 ± 0.39%
- change of HGAL expression in CD14+ monocytes (HGAL [3]; after 28 days of treatment): did not decrease
- change of Lyn protein level in circulating blood mononuclear cells (Lyn [4]; [15]): no clear change; also recorded: no apparent trend; also recorded: no significant decrease
- Lyn intracellular level, % of population ± CV, Day 28 (Lyn [4]; CD4+ T cells, untreated: Screening 13.7, Day 1 20): 28.7 ± 0.37%
- Lyn intracellular level, % of population ± CV, Day 28 (Lyn [4]; CD8+ T cells, untreated: Screening 17.6, Day 1 25.8): 33.3 ± 0.31%
- Lyn intracellular level, % of population ± CV, Day 28 (Lyn [4]; CD14+ Monocytes, untreated: Screening 51.4, Day 1 40.5): 66.6 ± 0.59%
- Lyn intracellular level, % of population ± CV, Day 28 (Lyn [4]; CD19+ B cells, untreated: Screening 8.33, Day 1 12.4): 12.1 ± 0.15%
- change of NMT2 protein level in circulating blood mononuclear cells (NMT2; 20 mg daily, 28 days, all cell populations with the exception of monocytes): no clear change; also recorded: very stable
- NMT2 intracellular level, % of population ± CV, Day 28 (NMT2; CD4+ T cells, untreated: Screening 22.8, Day 1 25.7): 35.3 ± 0.36%
- NMT2 intracellular level, % of population ± CV, Day 28 (NMT2; CD8+ T cells, untreated: Screening 11, Day 1 12.7): 18.7 ± 0.33%
- NMT2 intracellular level, % of population ± CV, Day 28 (NMT2; CD14+ Monocytes, untreated: Screening 6.21, Day 1 6.7): 11.7 ± 0.17%
- NMT2 intracellular level, % of population ± CV, Day 28 (NMT2; CD19+ B cells, untreated: Screening 31.8, Day 1 29): 33.3 ± 0.24%
- change of NMT2 protein level in monocytes (NMT2; end of the first cycle): increased
- dose-limiting toxicities ([5]; 28-day cycle): did not experience any dose-limiting toxicities; also recorded: no protocol-defined dose-limiting toxicities
- hematopoietic profile and biochemistry ([5]; throughout the trial): remained normal; also recorded: no evidence of toxicity to hematopoietic function, liver function, or kidney function
- response of lymphoma (Lugano classification criteria) [6]: disease progression; also recorded: progression of the volume of lymphoma
- oral bioavailability [7]: complete oral bioavailability
- off-target kinase inhibition (kinase): no significant off-target kinase inhibition
- hERG interaction (hERG): no significant hERG interaction
- cardiac conduction ([8]; animal non-clinical safety testing): no cardiac conduction issues
- dose-limiting toxicity in GLP non-clinical safety testing [8]: diarrhea was dose-limiting
- inhibition of hematologic and lymphoma cell lines [9]: markedly inhibits
- response in solid cancers [10]: tumour responses
- response of human cancers grown in immunodeficient mice [10]: complete remissions
- BTK modification and downstream signaling [11]: profoundly inhibited
- Lyn protein level in vitro (Lyn [12]): significantly decreased
- HGAL protein level in vitro (HGAL [13]): significantly decreased
